In patent US20080038276A1, “INHIBITORS OF PLASMA KALLIKREIN” (Activesite Pharmaceuticals, Inc., priority 2006, published 2008):
Square brackets hold non-standard residues; d marks the D form. * marks the point of attachment. CH2Cl = ClC*

tested on: LPS or bacterial induced sepsis in animals; experiment: not given; conditions: in vivo; cited from earlier work

Molecule | vascular permeability in multiple organs and lesions
H-[dP]-Phe-Arg-CH2Cl [reference compound] | reduce

tested on: plasmin-activated coagulation in plasma; experiment: Plasmin-activated coagulation of plasma (plasmin + 6.25% Actin FS), time to coagulation; design: species or system human; conditions: 100 nM plasmin, 50% plasma, 6.25% Actin FS; control 1.00
Method: In the clotting paradigm utilized in Example 3, plasma is mixed 1:1 with commercially formulated Actin FS. Thus, 50% (v/v) Actin FS is the maximum amount of activator that can be added while maintaining the amount of plasma constant at 50% of the incubation mixture. Since the clotting time in normal plasma is dependent on the amount of Actin FS present in the incubation mixture, these conditions would by definition lead to the shortest time to coagulation mediated by the intrinsic pathway in this paradigm. Lowering the amount of contact activator leads to a decrease in the amount of PK activated, thus reducing the amount of thrombin generated and slowing the time to coagulation (data not shown). Therefore, in order to determine whether addition of exogenous plasmin (mimicking a fibrinolytic setting) can shorten time to coagulation, the amount of Actin FS reagent added to the plasma (kept constant at 50% of the final incubation mixture) was lowered so as to attain 6.25% (final v/v).
This provides direct evidence that plasmin can have a thrombogenic effect when added to plasma in the presence of a small amount of contact activator.
The role for PK was established by evaluating deficiencies in PK, as well as by using two specific inhibitors of the enzymes. In order to determine whether blocking PK via a specific monoclonal antibody (MAb) would also be effective in inhibiting coagulation in either of the two paradigms described here, and thus provide additional validation for the invention, MAb 13G11, which has been previously characterized as being specific for PK (Veloso et al, (1987) Blood, 70, 1053-1062), was tested in each of the coagulation paradigms described in Examples 2 and 3. MAb 13G11 (obtained from GeneTex, San Antonio, Tex.) was added at a final concentration of 0.036 mg/ml in the 50% plasma—50% activator mix in each paradigm. This calculates to an approximately 2-fold molar excess over the amount of PK that would be present in the plasma—activator mixture, based on the literature reference of Veloso et al, (1987), Blood, 70, 1053-1062. Control samples were treated with 0.036 mg/ml of an isotype-matched control IgG1 (also obtained from GeneTex). When plasma was activated using 50% Actin FS (FIG. 5), MAb 13G11 prolonged time to coagulation by 100% (45% of the maximal effect obtained with PK-deficient plasma), and, when plasma was activated using 200 nM plasmin+6.25% Actin FS (FIG. 6), prolonged time to coagulation by 32% (40% of the maximal effect obtained with PK-deficient plasma).

Molecule | relative coagulation time
plasmin: exogenous plasmin added to plasma, mimicking a fibrinolytic setting (protein, UniProt P00747 20-580; P00747 581-810, looked up, Plasmin, exogenous plasmin added to plasma, mimicking a fibrinolytic setting) Plasmin heavy chain A: EPLDDYVNTQGASLFSVTKKQLGAGSIEECAAKCEEDEEFTCRAFQYHSKEQQCVIMAENRKSSIIIRMRDVVLFEKKVYLSECKTGNGKNYRGTMSKTKNGITCQKWSSTSPHRPRFSPATHPSEGLEENYCRNPDNDPQGPWCYTTDPEKRYDYCDILECEEECMHCSGENYDGKISKTMSGLECQAWDSQSPHAHGYIPSKFPNKNLKKNYCRNPDRELRPWCFTTDPNKRWELCDIPRCTTPPPSSGPTYQCLKGTGENYRGNVAVTVSGHTCQHWSAQTPHTHNRTPENFPCKNLDENYCRNPDGKRAPWCHTTNSQVRWEYCKIPSCDSSPVSTEQLAPTAPPELTPVVQDCYHGDGQSYRGTSSTTTTGKKCQSWSSMTPHRHQKTPENYPNAGLTMNYCRNPDADKGPWCFTTDPSVRWEYCNLKKCSGTEASVVAPPPVVLLPDVETPSEEDCMFGNGKGYRGKRATTVTGTPCQDWAAQEPHRHSIFTPETNPRAGLEKNYCRNPDGDVGGPWCYTTNPRKLYDYCDVPQCAAPSFDCGKPQVEPKKCPGR Plasmin light chain B: VVGGCVAHPHSWPWQVSLRTRFGMHFCGGTLISPEWVLTAAHCLEKSPRPSSYKVILGAHQEVNLEPHVQEIEVSRLFLEPTRKDIALLKLSSPAVITDKVIPACLPSPNYVVADRTECFITGWGETQGTFGAGLLKEAQLPVIENKVCNRYEFLNGRVQSTELCAGHLAGGTDSCQGDSGGPLVCFEKDKYILQGVTSWGLGCARPNKPGVYVRVSRFVTWIEGVMRNN | 0.74

same assay, conditions: 200 nM plasmin, 50% plasma, 6.25% Actin FS; control 1.00

Molecule | relative coagulation time
plasmin: exogenous plasmin added to plasma, mimicking a fibrinolytic setting (protein, UniProt P00747 20-580; P00747 581-810, looked up, Plasmin, exogenous plasmin added to plasma, mimicking a fibrinolytic setting) Plasmin heavy chain A: EPLDDYVNTQGASLFSVTKKQLGAGSIEECAAKCEEDEEFTCRAFQYHSKEQQCVIMAENRKSSIIIRMRDVVLFEKKVYLSECKTGNGKNYRGTMSKTKNGITCQKWSSTSPHRPRFSPATHPSEGLEENYCRNPDNDPQGPWCYTTDPEKRYDYCDILECEEECMHCSGENYDGKISKTMSGLECQAWDSQSPHAHGYIPSKFPNKNLKKNYCRNPDRELRPWCFTTDPNKRWELCDIPRCTTPPPSSGPTYQCLKGTGENYRGNVAVTVSGHTCQHWSAQTPHTHNRTPENFPCKNLDENYCRNPDGKRAPWCHTTNSQVRWEYCKIPSCDSSPVSTEQLAPTAPPELTPVVQDCYHGDGQSYRGTSSTTTTGKKCQSWSSMTPHRHQKTPENYPNAGLTMNYCRNPDADKGPWCFTTDPSVRWEYCNLKKCSGTEASVVAPPPVVLLPDVETPSEEDCMFGNGKGYRGKRATTVTGTPCQDWAAQEPHRHSIFTPETNPRAGLEKNYCRNPDGDVGGPWCYTTNPRKLYDYCDVPQCAAPSFDCGKPQVEPKKCPGR Plasmin light chain B: VVGGCVAHPHSWPWQVSLRTRFGMHFCGGTLISPEWVLTAAHCLEKSPRPSSYKVILGAHQEVNLEPHVQEIEVSRLFLEPTRKDIALLKLSSPAVITDKVIPACLPSPNYVVADRTECFITGWGETQGTFGAGLLKEAQLPVIENKVCNRYEFLNGRVQSTELCAGHLAGGTDSCQGDSGGPLVCFEKDKYILQGVTSWGLGCARPNKPGVYVRVSRFVTWIEGVMRNN | 0.65

same assay, conditions: 200 nM plasmin, absence of any Actin FS

Molecule | relative time to coagulation
plasmin: exogenous plasmin added to plasma, mimicking a fibrinolytic setting (protein, UniProt P00747 20-580; P00747 581-810, looked up, Plasmin, exogenous plasmin added to plasma, mimicking a fibrinolytic setting) Plasmin heavy chain A: EPLDDYVNTQGASLFSVTKKQLGAGSIEECAAKCEEDEEFTCRAFQYHSKEQQCVIMAENRKSSIIIRMRDVVLFEKKVYLSECKTGNGKNYRGTMSKTKNGITCQKWSSTSPHRPRFSPATHPSEGLEENYCRNPDNDPQGPWCYTTDPEKRYDYCDILECEEECMHCSGENYDGKISKTMSGLECQAWDSQSPHAHGYIPSKFPNKNLKKNYCRNPDRELRPWCFTTDPNKRWELCDIPRCTTPPPSSGPTYQCLKGTGENYRGNVAVTVSGHTCQHWSAQTPHTHNRTPENFPCKNLDENYCRNPDGKRAPWCHTTNSQVRWEYCKIPSCDSSPVSTEQLAPTAPPELTPVVQDCYHGDGQSYRGTSSTTTTGKKCQSWSSMTPHRHQKTPENYPNAGLTMNYCRNPDADKGPWCFTTDPSVRWEYCNLKKCSGTEASVVAPPPVVLLPDVETPSEEDCMFGNGKGYRGKRATTVTGTPCQDWAAQEPHRHSIFTPETNPRAGLEKNYCRNPDGDVGGPWCYTTNPRKLYDYCDVPQCAAPSFDCGKPQVEPKKCPGR Plasmin light chain B: VVGGCVAHPHSWPWQVSLRTRFGMHFCGGTLISPEWVLTAAHCLEKSPRPSSYKVILGAHQEVNLEPHVQEIEVSRLFLEPTRKDIALLKLSSPAVITDKVIPACLPSPNYVVADRTECFITGWGETQGTFGAGLLKEAQLPVIENKVCNRYEFLNGRVQSTELCAGHLAGGTDSCQGDSGGPLVCFEKDKYILQGVTSWGLGCARPNKPGVYVRVSRFVTWIEGVMRNN | 4.0

molecular target: T1, Human plasma kallikrein (PK) (Homo sapiens, UniProt P03952); experiment: Inhibition of human plasma kallikrein amidolytic activity (H-D-Pro-Phe-Arg-pNA cleavage, A405); assay type: biochemical; conditions: PK Kiapp, apparent inhibition constant; 1 nM PK, pH 7.5
T1 construct: purchased Haemtech Technologies (Essex Junction, Vt.)
T1 sequence (P03952 391-638 limits assumed): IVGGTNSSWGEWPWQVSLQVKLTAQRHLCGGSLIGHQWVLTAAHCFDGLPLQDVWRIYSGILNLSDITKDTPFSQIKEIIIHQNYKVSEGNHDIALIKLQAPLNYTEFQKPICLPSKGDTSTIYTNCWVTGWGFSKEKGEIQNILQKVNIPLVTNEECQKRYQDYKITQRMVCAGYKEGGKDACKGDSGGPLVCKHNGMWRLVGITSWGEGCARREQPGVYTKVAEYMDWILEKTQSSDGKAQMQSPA
T1 sequence (P03952 20-390 partner limits assumed): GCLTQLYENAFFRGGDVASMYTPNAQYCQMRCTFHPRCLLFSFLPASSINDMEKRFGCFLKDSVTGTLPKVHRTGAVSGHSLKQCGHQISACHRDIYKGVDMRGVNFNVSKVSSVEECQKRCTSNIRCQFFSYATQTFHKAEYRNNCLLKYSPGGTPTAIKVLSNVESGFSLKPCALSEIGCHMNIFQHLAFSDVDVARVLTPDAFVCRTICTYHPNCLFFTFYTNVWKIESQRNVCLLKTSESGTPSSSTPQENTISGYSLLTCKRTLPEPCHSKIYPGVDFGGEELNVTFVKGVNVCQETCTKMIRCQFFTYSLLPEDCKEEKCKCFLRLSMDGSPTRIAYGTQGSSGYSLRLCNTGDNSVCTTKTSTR
Method: Human plasma kallikrein (PK) was obtained from Haemtech Technologies (Essex Junction, Vt.). The enzymatic activity of PK was assayed using the synthetic peptide substrate H-D-Pro-Phe-Arg-pNA (Bachem, Inc., Switzerland) with the cleavage of the substrate by the enzyme resulting in an increase in A405, measured using a Molecular Devices Vmax Kinetic Microplate Reader. The uninhibited (control) activity of PK was determined by adding 190 μl of PK solution (1 nM in 0.05 M HEPES, pH 7.5, 0.01% Triton X-100) to 10 μl of H-D-Pro-Phe-Arg-pNA (2 mM in DMSO) in individual microtiter plate wells, mixed immediately by shaking, and the rate of increase in A405 determined over 120-180 sec. In parallel, compounds of the present invention were mixed in separate wells with the synthetic substrate to attain final concentrations of between 0.01-10 μM in the final 200 μl reaction mixture, and the reaction initiated by the addition of 190 μl of the PK solution.
The highest concentration of either compound tested was 10 μM.

Molecule | Ki
N=C(N)c1ccc(CNC(=O)c2cn(Cc3ccccc3)c3ccccc23)cc1 [ASP-381, 1-Benzyl-1H-indole-3-carboxylic acid 4-carbamimidoyl-benzylamide] | 0.24 µM

same assay, conditions: Table 4 inhibition constants; read-out: Ki

Ki | Molecule
0.03 µM | N=C(N)c1ccc(CNC(=O)c2cn(S(=O)(=O)c3ccccc3)c3ccccc23)cc1 (single isomer, unassigned) [compound 2]
0.15 µM | N=C(N)c1ccc(CNC(=O)c2cnn(Cc3ccccc3)c2)cc1 (single isomer, unassigned) [compound 3]
1 µM | N=C(N)c1ccc(CNC(=O)c2cnn(-c3ccccc3)c2)cc1 [compound 4]

Molecule | Ki
N=C(N)c1ccc(CNC(=O)c2cn(Cc3ccccc3)c3ccccc23)cc1 [compound 1] | 0.08 µM

same assay, conditions: apparent inhibition constant; 1 nM PK, pH 7.5; read-out: PK Kiapp

Ki | Molecule
8.87 µM | Cc1nc(-c2ccccc2)sc1C(=O)NCc1ccc(C(=N)N)cc1 [ASP-373, 4-Methyl-2-phenyl-thiazole-5-carboxylic acid 4-carbamimidoyl-benzylamide]
0.17 µM | N=C(N)c1ccc(CNC(=O)c2cn(S(=O)(=O)c3ccccc3)c3ccccc23)cc1 [ASP-383, 1-Benzenesulfonyl-1H-indole-3-carboxylic acid 4-carbamimidoyl-benzylamide]
1.43 µM | N=C(N)c1ccc(CNC(=O)c2cnn(-c3ccccc3)c2)cc1 [ASP-445, 1-Phenyl-1H-pyrazole-4-carboxylic acid 4-carbamimidoyl-benzylamide]
1.29 µM | Cc1oc(-c2ccccc2)cc1C(=O)NCc1ccc(C(=N)N)cc1 [ASP-466, 2-Methyl-5-phenyl-furan-3-carboxylic acid 4-carbamimidoyl-benzylamide]
2.52 µM | N=C(N)c1ccc(CNC(=O)c2cc3ccccc3[nH]2)cc1 [ASP-484, 1H-Indole-2-carboxylic acid 4-carbamimidoyl-benzylamide]
0.87 µM | N=C(N)c1ccc(CNC(=O)c2cc3ccccc3o2)cc1 [ASP-485, Benzofuran-2-carboxylic acid 4-carbamimidoyl-benzylamide]
1.57 µM | N=C(N)c1ccc(CNC(=O)c2cc3ccccc3s2)cc1 [ASP-486, Benzo[b]thiophene-2-carboxylic acid 4-carbamimidoyl-benzylamide]
2.11 µM | N=C(N)c1ccc(CNC(=O)c2csc3ccccc23)cc1 [ASP-491, Benzo[b]thiophene-3-carboxylic acid 4-carbamimidoyl-benzylamide]
2.45 µM | N=C(N)c1ccc(CNC(=O)c2c[nH]c3ccccc23)cc1 [ASP-493, 1H-Indole-3-carboxylic acid 4-carbamimidoyl-benzylamide]
7.66 µM | N=C(N)c1ccc(CNC(=O)c2ccc(-c3ccccc3)s2)cc1 [ASP-523, 5-Phenyl-thiophene-2-carboxylic acid 4-carbamimidoyl-benzylamide]
20.6 µM | N=C(N)c1ccc(CNC(=O)c2ccc(-c3ccccn3)s2)cc1 [ASP-525, 5-Pyridin-2-yl-thiophene-2-carboxylic acid 4-carbamimidoyl-benzylamide]
2.62 µM | Cc1c(C(=O)NCc2ccc(C(=N)N)cc2)nnn1Cc1ccc(Br)cc1 [ASP-558, 1-(4-Bromo-benzyl)-5-methyl-1H-1,2,3-triazole-4-carboxylic acid 4-carbamimidoyl-benzylamide]
8.09 µM | N=C(N)c1ccc(CNC(=O)c2cn(Cc3ccc(F)cc3)nn2)cc1 [ASP-559, 1-(4-Fluoro-benzyl)-1H-1,2,3-triazole-4-carboxylic acid 4-carbamimidoyl-benzylamide]
0.04 µM | Cc1cc(C(=O)NCc2ccc(C(=N)N)cc2)c(C)n1-c1ccccc1 [ASP-576, 2,5-Dimethyl-1-phenyl-1H-pyrrole-3-carboxylic acid 4-carbamimidoyl-benzylamide]
1.13 µM | Cc1nn(Cc2ccccc2)c(C)c1C(=O)NCc1ccc(C(=N)N)cc1 [ASP-577, 1-Benzyl-3,5-dimethyl-1H-pyrazole-4-carboxylic acid 4-carbamimidoyl-benzylamide]
1.64 µM | Cc1nn(Cc2ccccc2Cl)c(C)c1C(=O)NCc1ccc(C(=N)N)cc1 [ASP-578, 1-(2-Chloro-benzyl)-3,5-dimethyl-1H-pyrazole-4-carboxylic acid 4-carbamimidoyl-benzylamide]
1.19 µM | Cc1nn(Cc2c(Cl)cccc2Cl)c(Cl)c1C(=O)NCc1ccc(C(=N)N)cc1 [ASP-579, 5-Chloro-1-(2,6-dichloro-benzyl)-3-methyl-1H-pyrazole-4-carboxylic acid 4-carbamimidoyl-benzylamide]
0.03 µM | Cc1cc(C(=O)NCc2ccc(C(=N)N)cc2)c(C)n1Cc1ccccc1 [ASP-580, 1-Benzyl-2,5-dimethyl-1H-pyrrole-3-carboxylic acid 4-carbamimidoyl-benzylamide]
0.41 µM | Cc1cc(C(=O)NCc2ccc(C(=N)N)cc2)c(C)n1CC(F)(F)F [ASP-581, 2,5-Dimethyl-1-(2,2,2-trifluoro-ethyl)-1H-pyrrole-3-carboxylic acid 4-carbamimidoyl-benzylamide]
0.47 µM | N=C(N)c1ccc(CNC(=O)c2cnn(Cc3ccccc3Cl)c2)cc1 [ASP-582, 1-(2-Chloro-benzyl)-1H-pyrazole-4-carboxylic acid 4-carbamimidoyl-benzylamide]
2.38 µM | Cc1nn(Cc2ccc(F)cc2)c(Cl)c1C(=O)NCc1ccc(C(=N)N)cc1 [ASP-583, 5-Chloro-1-(4-fluoro-benzyl)-3-methyl-1H-pyrazole-4-carboxylic acid 4-carbamimidoyl-benzylamide]
